Legend:
Assay type in all cases: cell-based, human
caspase-3 activity = assay: Caspase-3 activity assay in Jurkat cells; settings: for increase of caspase-3 activity: 48 h
Excerpt: Such results are consistent with those expected by the compounds herein.

p21WAF1/Cip1 promoter = assay: Luc-p21WAF1/Cip1 luciferase reporter gene assay in AD293 (HEK) cells
Protocol: The plasmid Luc-p21^Cip1/WAF1 (a gift from Vogelstein Laboratory, JHMI, Baltimore, Md.) was amplified and purified utilizing a plasmid maxi kit (Cat. No. 12163. Qiagen, Valencia, Calif.) following the manufacturer's protocol. HEK cells (2.5×10^5) were seeded in 3.0 mL medium and grown in 6-well T. C. plates. Transfection was performed using lipofectamine 2000 (Cat. No. 11668-019, Invitrogen, Carlsbad, Calif.) following the protocol supplier's protocol. Cells were trypsinized 24 h after transfection and seeded at 250,000 cells per well with concentrations of 1-4 shown in FIG. 3a or 1, 5, and ManNAc plus 5 at the concentrations shown in FIG. 3c. After 72 h, the cells were trypsinized, counted and lysed in 300 μL of luciferase cell culture lysis buffer and diluted five-fold in the same buffer. Luminometry was performed utilizing the ‘Luciferase Assay System’ (Cat. No. 1500, 4550, Promega, Madison, Wis.) following supplier's protocol. Luciferase Assay Reagent (100 μL) was added to the cell lysate (20 μL) in luminometer tubes (Cat. No. 55.476, Sarstedt, Newton, N.C.) and the luminescence was measured immediately using a Berthold Sirius Luminometer. The final values were normalized relative to ethanol-treated controls and reported on a per cell basis.

p21WAF1 = assay: Endogenous p21WAF1 assay (anti-p21WAF1 antibody, flow cytometry) in Jurkat cells
Protocol: Endogenous expression of p21^WAF1 was detected following a reported procedure (58) with minor modifications. Jurkat cells (5.0×10^6 cells in 10 mL medium) were incubated with either ethanol or 1 (250 μM or 5 (2.5 mM). On a daily basis, aliquots of cells (˜1.0×10^6 per sample) were taken, washed with PBS (2×1.0 mL), fixed with Reagent A (Fix and Perm Kit, Caltag Laboratories, CA, Cat. No. GAS-003) for 10 min at room temperature, washed with washing buffer (PBS containing 5.0% FBS, 0.1% NaN3), re-suspended in 95% v/v methanol and kept on ice. After 30 min, cells were again washed with washing buffer and incubated with FITC-conjugated anti-p21^WAF1 antibody (Calbiochem, San Diego, Calif., Cat. No. OP64F) at 2.0 μg/mL in Reagent B (100 μL) (Fix and Perm Kit, Caltag Laboratories) for 1.0 h at room temperature in the dark. Finally, cells were re-suspended in washing buffer (500 μL) and analyzed by flow cytometry. Three replicate samples were taken for each condition and 10,000 events were counted for each sample.

[1] = test system: sialic acid biosynthesis in Jurkat cells; assay: Assay for total sialic acid production (periodate-resorcinol); settings: three days
Protocol: Jurkat cells (5.0×10^6 cells in 10 mL medium) were incubated with 1-5 at various concentrations. […] The cell lysates were analyzed by using an adapted version of the periodate-resorcinol assay (36, 59) with the periodic acid oxidation step performed on ice to allow quantification of total (i.e., free monosaccharide plus glycoconjugate-bound) sialic acid. For each assay, a standard curve was obtained using N-acetylneuraminic acid (Pfanstiehl, Waukegan, Ill.) for calibration.

Jurkat cells = assay: Toxicity and growth inhibition assays (cell counts on days 3, 5 and 15)
Protocol: For cell culture studies, But4ManNAc (1) (50) was used as a mixture of anomers (α/β=10/90), But4GlcNAc (2) as pure α-anomer and But5Man (3) as pure β-anomer (It is noteworthy that the intracellular hydrolysis of butyrate esters makes the anomeric configuration less relevant in these studies and we found similar cellular effects between the α- and β-anomers in long term toxicity). Stock solutions of the sugar analogs were made in ethanol at concentrations of 10 mM and 50 mM. In the case of cells growing in suspension the solutions of 1-4 (or an ethanol control at an equivalent volume) were coated onto dishes and the ethanol was allowed to evaporate prior to plating. Unless otherwise noted, throughout this study Jurkat cells (Clone E-6, ATCC, Manassas, Va.) were cultured in RPMI 1640 medium supplemented with 300 mg/L glutamine, 5.0% fetal bovine serum (HyClone, Logan, Utah) and 1.0% of a 100× dilution of a pen/strep stock solution containing penicillin (100 units/mL) and streptomycin (100 μg/mL); HL-60 cells (ATCC, Manassas, Va.) were cultured in RPMI 1640 medium supplemented with 10% FBS and pen/strep; and AD293 (HEK) cells (Stratagene, La Jolla, Calif.) were grown in DMEM medium with 10% FBS and pen/strep. In all cases, cells were incubated in a standard 37° C. in a 5.0% CO2, water-saturated environment. Cell counting was performed with a Beckman-Coulter Z2 particle counter and hemacytometer.
Solutions of the analogs in EtOH (10 mM stock) were coated onto 24-well plates at a range of concentrations from 0-320 μM and ethanol was allowed to evaporate. Jurkat cells (1.0×10^5 cells) in 0.5 mL of medium were plated in each well (day 0). On days 3 and 5, fresh medium (1.0 mL) was added to each well. Cell cultures were mixed by gentle pipetting and 100 μL of cell suspension was taken from each well and counted. On days 7, 9, 11, 13 and 15, 1.0 mL of cell suspension was removed from each well after thorough mixing and fresh medium (1.0 mL) was added. Cells were counted on day 15 and the cell density was plotted as a percentage of control (as was done for cell counts from days 3 and 5).

CCCC(=O)OC[C@H]1OC(OC(=O)CCC)[C@@H](NC(C)=O)[C@@H](OC(=O)CCC)[C@@H]1OC(=O)CCC (stereo partly drawn) [compound 1, 2-Acetylamino-2-deoxy-1,3,4,6-tetra-O-butanoyl-α,β-D-mannopyranoside]
apoptosis by caspase-3 activity assay (caspase-3 activity): dose dependent apoptosis | increase of caspase-3 activity (caspase-3 activity; 25 μM): ~4 fold | increase of caspase-3 activity (caspase-3 activity; 50 μM): ~8 fold | increase of caspase-3 activity (caspase-3 activity; 100 μM): ~14 fold | concentration level required for p21WAF1/Cip1 activation (p21WAF1/Cip1 promoter): micromolar level efficiency | gain in efficiency for 1 over 5, relative to the ~10× of the endogenous p21 assay (p21WAF1/Cip1 promoter; luc-p21WAF1/Cip reporter assay): even greater | fold lower concentration for endogenous p21WAF1/Cip1 gene activation than sodium n-butyrate (5) (p21WAF1): ~10 × | endogenous p21WAF1 levels (p21WAF1; one week, 1 at 250 μM, 5 at 2.5 mM): increased p21^WAF1 levels | total sialic acid [1]: large increase in total sialic acid | long term growth characteristics (day 15) (Jurkat cells; Jurkat cells, 0-320 μM, day 15): induces both growth arrest and cell death | concentration at which essentially all cells died by day 15 (Jurkat cells; Jurkat cells, day 15): ≥ 80 µM | range for bioactivity (Jurkat cells; ManNAc and butyrate combined in the same molecule): 50 to 100 µM

— patent publication US9315532B2, “Fatty acid carbohydrate hybrid molecules as therapeutic agents and methods thereof” (The Johns Hopkins University, priority 2005, dated 2016)
